Measured values from patent publication US9492470B2, “Use of HMGA-targeted phosphorothioate DNA aptamers to suppress carcinogenic activity and increase sensitivity to chemotherapy agents in human cancer cells” (MIAMI UNIVERSITY, priority 2012, dated 2016).
Like-named read-outs stand apart in the source and are kept apart here. In the oligonucleotide strings, read from the 5' end, every base follows the letter of its sugar. An asterisk marks phosphorothioate; unmarked linkages are phosphodiester. Other units and linkages are bracketed, terminal groups are in braces. A string of capitals states the bases alone. d = 2'-deoxy (DNA)

Assays:
[1] = tested on: HMGA1 expression levels in AsPC-1 cells; assay: Western blot of HMGA1 expression levels in AsPC-1 nuclear extracts; type: cell-based, Human; settings: AsPC-1, 0.5 μg sDNA in six well plates, 48 hours
Experimental: Cytoplasmic and nuclear protein extracts were prepared from pancreatic cancer cells using NE-PER extraction kit (Thermo Scientific, Rockford, Ill.). Protein concentrations were determined using a bicinchoninic acid assay with bovine serum albumin as a standard. Nuclear proteins that contained 25 or 15 μg total protein were separated by SDS-PAGE with a 4%-20% Criterion gradient gel (Bio-Rad Laboratories, Inc., Hercules, Calif.). The proteins were transferred to immuno-blot PVDF membrane (0.2 μm) (Bio-Rad Laboratories, Inc., Hercules, Calif.) and blocked in 5% dry milk in PBS supplemented with 0.2% Tween 20 (PBST). The PVDF membranes were then probed with 1:1000 dilution of rabbit anti-HMGA1 antibody (Santa Cruz Biotechnology Inc, Santa Cruz, Calif.) and 1:100 dilution of rabbit anti-HMGA2 antibody (Abcam plc, Cambridge, Mass.), in 3% BSA in PBST at 4° C. overnight. After three washes with PBST, the membrane was blotted with secondary antibody, ant-rabbit IgG-HRP (cell signaling) 1:5000 dilution in 1% dry milk in PBST at room temperature for 1 hour. An enhanced chemiluminescence detection (ECL, GE Healthcare Life Sciences, Piscataway, N.J.) system was used to detect target proteins. To ensure equal loading of the proteins between groups, membranes were re-probed with anti-TATA binding protein antibody (Abcam plc, Cambridge, Mass.). […] The control was nuclear extract from untreated cells. Triplicates of each sample were run on the gel and analyzed with the Alpha Imager. The relative HMGA1 densities were obtained by dividing HMGA 1 density by TBP density. […] TATA binding protein (TBP) was used as a loading control. […] HMGA1 expression levels were examined after transfection with CG-sDNA or AT-sDNA to determine if the transfection procedure affected HMGA1 expression levels. The AT-sDNA used for transfection contained an 18 adenine/thymine stretch enabling HMGA1 to bind the DNA with all three AT-hooks. As a negative control, a non-HMGA1-targeted sDNA containing an equal length of DNA but with no AT-stretches, i.e. CG-sDNA, was used. […]

[2] = tested on: Miapaca-2 cells; assay: Cell viability (crystal violet) after sDNA transfection, Miapaca-2; type: cell-based, Human; settings: for cells dead compared to UT: versus untransfected (UT) cells; for Fold change in numbers of viable cells between TC and sDNA transfected cells (in parentheses) / Fold change in numbers of viable cells between UT and transfected cells: 96 h after transfection
Experimental: The absorbance was measured at 570 nm in quadruplicate. All data from control cells were combined and averaged.

[3] = tested on: AsPC-1 cells; assay: Cell growth with gemcitabine treatment after sDNA transfection, AsPC-1; type: cell-based, Human; settings: AsPC-1, 0.1 ug sDNA, 96 hours
Experimental: (§1) Cells were fixed after 96 hours and numbers of viable cells counted by measuring the absorbance at 570 nm.
(§2) Cells were transfected with 0.1 μg of TC-sDNA, Mix-sDNA, CG-sDNA, and AT-sDNA.

[4] = tested on: Miapaca-2 cells; assay: Cell growth with gemcitabine treatment after sDNA transfection, Miapaca-2; type: cell-based, Human; settings: 96 hours; for Fold change in numbers of viable cells normalized relative to TC: Miapaca-2, 0.1 ug sDNA
Experimental: as §1, §2

[5] = tested on: AsPC-1 cells; settings: for cell death: 96 h, compared to non-transfected cells; for cells dead compared to UT: versus untransfected (UT) cells; for Fold change in numbers of viable cells between TC and sDNA transfected cells (in parentheses) / Fold change in numbers of viable cells between UT and transfected cells: 96 h after transfection
Experimental: AsPC-1 cells were grown in Roswell Park Memorial Institute medium supplemented with 10% FBS, and 1% penicillin-streptomycin.
Transfections using sDNA at concentrations of 0.1 and 0.25 μg per well were conducted with 5×10^4 and 1×10^5 Miapaca-2 and AsPC-1 cells, respectively, in 24-well plates and all data were collected in quadruplicate. Miapaca-2 and AsPC-1 cells were transfected with sDNA using Lipofectamine 2000 (Invitrogen,™ Life Technologies Corporation, Carlsbad, Calif.) according to the manufacturer's protocol.
Briefly, AsPC-1 cells grown in 10% FBS containing RPIM medium were trypsinized using a trypsin-EDTA solution commercially available from the Sigma-Aldrich, and used to seed fresh media in a 24-well plate with 10^5 cells per well.
After 48 hours, the cells were transfected with the selected sDNA using Lipofectamine 2000 (Invitrogen,™ Life Technologies Corporation, Carlsbad, Calif.) according to the manufacturer's protocol. […] The cells were then fixed with 4% paraformaldehyde in PBS for 20 minutes and stained in 0.1% crystal violet stain (Sigma-Aldrich) for 30 minutes. The cells were washed under running tap water, air dried, and extracted with 0.2% Triton™ X-100 for 30 minutes. […] The absorbance of the Triton X-100 was measured at 570 nm using a HTS microplate reader. All results were analyzed for statistical significance using a student's unpaired t-test.

[6] = tested on: AsPC-1 cells; assay: Cell growth with gemcitabine treatment after sDNA transfection, AsPC-1; type: cell-based, Human; settings: AsPC-1, 0.25 ug sDNA, 96 hours
[7] = tested on: Miapaca-2 cells; assay: Cell growth with gemcitabine treatment after sDNA transfection, Miapaca-2; type: cell-based, Human; settings: 96 hours

In the case of “CG-sDNA: CG-rich phosphorothioate DNA (SEQ ID NO: 12), negative control with no AT-stretches (DNA dC*dC*dC*dC*dG*dG*dG*dC*dC*dC*dC*dG*dG*dC*dC*dG*dG*dG*dC*dG*dC*dC*dG*dC)”, the “change in HMGA1 expression levels after sDNA transfection” value [1] was “no changes”, the “cells dead compared to UT” value ([2]; Miapaca-2, 0.1 ug sDNA, 48 hrs) was 36.3% and the “Fold change in numbers of viable cells between TC and sDNA transfected cells (in parentheses)” value (shortened to “Fold change in numbers … (in parentheses)”) ([2]; Miapaca-2, 0.1 μg sDNA) was “(1.09) fold”. For the same substance, the “Fold change in numbers of viable cells between UT and transfected cells” value ([2]; Miapaca-2, 0.1 μg sDNA) was −1.43 fold, the “cells dead compared to UT” value ([2]; Miapaca-2, 0.1 ug sDNA, 96 hrs) was 32.0% and the “difference in cell viability between TC cells and sDNA transfected cells” value ([2]; Miapaca-2, 0.1 ug sDNA, both 48 and 96 hours) was “no significant differences”. For the same substance, the “Fold change in numbers … (in parentheses)” value ([2]; Miapaca-2, 0.25 μg sDNA) was “(−1.30) fold”, the “Fold change in numbers of viable cells between UT and transfected cells” value ([2]; Miapaca-2, 0.25 μg sDNA) was −2.15 fold and the “Fold change in numbers of viable cells normalized relative to TC” value ([3]; Gemcitabine 0 nM) was −1.11 fold. For the same substance, the “Fold change in numbers of viable cells normalized relative to TC” value ([3]; Gemcitabine 1 nM) was −1.09 fold, the “Fold change in numbers of viable cells normalized relative to TC” value ([3]; Gemcitabine 10 nM) was −1.18 fold and the “Fold change in numbers of viable cells normalized relative to TC” value ([3]; Gemcitabine 30 nM) was −1.34 fold. The “Fold change in numbers of viable cells normalized relative to TC” value ([3]; Gemcitabine 100 nM) was −1.52 fold, the “Fold change in numbers of viable cells normalized relative to TC” value ([3]; Gemcitabine 1000 nM) was −1.67 fold and the “cells dead / change in cell viability” value ([4]; Miapaca-2, 0.1 μg sDNA, 1 nM gemcitabine) was “no significant change”. For the same substance, the cells surviving ([4]; Miapaca-2, 0.1 μg sDNA, 10 nM gemcitabine, normalized to 0 nM gemcitabine) was 83.9%, the “Fold change in numbers of viable cells normalized relative to TC” value ([4]; Gemcitabine 0 nM) was 1.09 fold and the “Fold change in numbers of viable cells normalized relative to TC” value ([4]; Gemcitabine 10 nM) was −1.09 fold. For the same substance, the “Fold change in numbers of viable cells normalized relative to TC” value ([4]; Gemcitabine 30 nM) was −3.29 fold, the “Fold change in numbers of viable cells normalized relative to TC” value ([4]; Gemcitabine 100 nM) was −4.06 fold and the “Fold change in numbers of viable cells normalized relative to TC” value ([4]; Gemcitabine 1000 nM) was −4.24 fold. The cell death ([5]; AsPC-1, 0.1 μg sDNA per well) was 12%, the “cells dead compared to UT” value ([5]; AsPC-1, 0.1 ug sDNA, 48 hrs) was 33.8% and the “Fold change in numbers … (in parentheses)” value ([5]; AsPC-1, 0.1 μg sDNA) was “(−1.11) fold”. For the same substance, the “Fold change in numbers of viable cells between UT and transfected cells” value ([5]; AsPC-1, 0.1 μg sDNA) was −1.20 fold, the “cells dead compared to TC” value ([5]; AsPC-1, 0.1 μg sDNA, 96 hrs, versus transfection control (TC) cells) was 9.7% and the “cells dead compared to UT” value ([5]; AsPC-1, 0.1 ug sDNA, 96 hrs) was 14.3%. The “difference in cell viability between TC cells and sDNA transfected cells” value ([5]; AsPC-1, 0.1 ug sDNA, both 48 and 96 hours) was “no significant differences”, the cell death ([5]; AsPC-1, 0.25 μg sDNA per well) was 16% and the “Fold change in numbers … (in parentheses)” value ([5]; AsPC-1, 0.25 μg sDNA) was “(−1.10) fold”. The “Fold change in numbers of viable cells between UT and transfected cells” value ([5]; AsPC-1, 0.25 μg sDNA) was −1.19 fold, the “cell death compared to TC” value ([5]; AsPC-1, 0.25 μg sDNA, 96 hours, versus TC cells) was 9.0% and the cell death ([5]; AsPC-1, 1.0 μg sDNA per well) was 60%. For the same substance, the “cells dead compared to TC” value ([5]; AsPC-1, 1.0 μg sDNA, 96 hours, versus TC cells) was 56.4%, the “Fold change in numbers of viable cells normalized relative to TC” value ([6]; Gemcitabine 0 nM) was −1.10 fold and the “Fold change in numbers of viable cells normalized relative to TC” value ([6]; Gemcitabine 1 nM) was −1.10 fold. The “Fold change in numbers of viable cells normalized relative to TC” value ([6]; Gemcitabine 10 nM) was −1.21 fold, the “Fold change in numbers of viable cells normalized relative to TC” value ([6]; Gemcitabine 30 nM) was −1.69 fold and the “Fold change in numbers of viable cells normalized relative to TC” value ([6]; Gemcitabine 100 nM) was −1.36 fold. For the same substance, the “Fold change in numbers of viable cells normalized relative to TC” value ([6]; Gemcitabine 1000 nM) was −2.16 fold, the “Fold change in numbers of viable cells normalized relative to TC” value ([7]; Miapaca-2, 0.1 ug sDNA, Gemcitabine 1 nM) was 1.12 fold and the “Fold change in numbers of viable cells normalized relative to TC” value ([7]; Miapaca-2, 0.25 ug sDNA, Gemcitabine 0 nM) was −1.30 fold. The “Fold change in numbers of viable cells normalized relative to TC” value ([7]; Miapaca-2, 0.25 ug sDNA, Gemcitabine 1 nM) was −1.38 fold, the “Fold change in numbers of viable cells normalized relative to TC” value ([7]; Miapaca-2, 0.25 ug sDNA, Gemcitabine 10 nM) was −1.37 fold and the “Fold change in numbers of viable cells normalized relative to TC” value ([7]; Miapaca-2, 0.25 ug sDNA, Gemcitabine 30 nM) was −2.97 fold. The “Fold change in numbers of viable cells normalized relative to TC” value ([7]; Miapaca-2, 0.25 ug sDNA, Gemcitabine 100 nM) was −5.48 fold and the “Fold change in numbers of viable cells normalized relative to TC” value ([7]; Miapaca-2, 0.25 ug sDNA, Gemcitabine 1000 nM) was −4.11 fold.
